The record followed here is US5663333A, “Substituted 1,4-diazapine caprolactams useful for treatment of HIV disease” (The DuPont Merck Pharmaceutical Company, priority 1993, dated 1997).

Usually pKi stands for the Ki on a negative log10 scale, so that one unit is a factor of ten. Broadly, the IC90 is the concentration at which the effect reaches the 90% level.

One test has as its target T1, HIV-1 protease (Human immunodeficiency virus type 1 group M subtype B, UniProt P04585).
T1 construct: synthetic gene coding for a single-chain tethered dimer of HIV protease; second copy of HIV protease joined in the same chain by a tether (single-chain tethered dimer); made in house
In words: HIV Protease Inhibition Assay - HPLC Method. It is filed as biochemical. To be noted: single-chain tethered dimer of HIV protease, pH 5.5. As for the experimental part: Protease: Inclusion bodies of E. coli harboring plasmid containing plasmid T1718R with a synthetic gene coding for a single-chain tethered dimer of HIV protease were prepared as described in Cheng et al. (Proc. Natl. Acad. Sci. USA, 87, 9660-9664, 1990). Active protease was prepared as described therein by extraction with 67% acetic acid, dilution 33-fold with water, dialysis against water and then against a "refolding buffer" consisting of 20 mM MES, 1 mM dithiothreitol and 10% glycerol. Protease was stored as a stock preparation at 10 uM in refolding buffer. […]
HPLC measurement of product formation: The product (aminobenzoyl-Ala--Thr--His--Gln--Val--Tyr) was separated from substrate on a Pharmacia MonoQ anion exchange column. […] Detection with a Shimadzu model RF535 fluorescence monitor was at 330 nm (excitation) and 430 (emission). The Ki was calculated from the formula Ki=I/(((Km+S-FA*S)/(FA*Km))-1) where I=inhibitory concentration, S=substrate concentration, FA=fractional activity=cm peak height with inhibitor/cm peak height without inhibitor, and Km=Michaelis constant=20 uM.
In the Tables herein the Ki values were determined using the assay conditions described above under HIV Protease Inhibition Assay-HPLC Method. […]

Test [1] relates to HIV(3B) or HIV(RF) in MT-2 cells. In words: HIV Low Multiplicity Assay (whole cell infectivity assay). To be noted: Human immunodeficiency virus 1, MT2, 168 h, 7 days, XTT, 90% protection from virus induced cell death. It is filed as cell-based. As for the experimental part:
Materials: MT-2, a human T-Cell line, was cultured in RPMI medium supplemented with 5% (v/v) heat inactivated fetal calf serum (FCS), L-glutamine and gentamycin (GIBCO). Human immunodeficiency virus strains HIV (3B) and HIV (RF) were propagated in H-9 cells in RPMI with 5% FCS. XTT, benzene-sulfonic acid, 3,3'-[1-[(phenyl-amino) carbonyl]-3,4-tetrazolium]bis(4-methoxy-6-nitro)-, sodium salt, was obtained from Starks Associates, Inc.
Method: Test compounds were dissolved in dimethylsulfoxide to 5 mg/ml and serially diluted into RPMI medium to ten times the desired final concentration. MT-2 cells (5×10^4 /0.1 mL) were added to each well of a 96 well culture plate and 0.02 mL of the appropriate test compound solution was added to the cells such that each compound concentration was present in two wells. The cells and compounds were allowed to sit for 30 minutes at room temperature. […] The percentage of cells protected from virus induced cell death was determined by the degree of metabolism of the tetrazolium dye, XTT. In living cells, XTT was metabolized to a colored formazan product which was quantitated spectrophotometrically at 450 nm. […]
In the Tables herein the IC90 values were determined using the assay conditions described above under HIV Low Multiplicity Assay. […]
For orientation: Tetrazolium assays rely on reduction of a dye to a coloured formazan, in cell work by metabolically active cells.

pKi: −log10 of the molar value.

Molecule `O=C1N[C@H](Cc2ccccc2)[C@H](O)CN[C@H]1Cc1ccccc1` [Example 1] had a pKi at HIV-1 protease of over 8.00. Moreover, the IC90 in test [1] was under 10 µg/mL.
For `O=C1N[C@H](Cc2ccccc2)[C@H](O)CN(Cc2ccccc2)[C@H]1Cc1ccccc1` [Example 24], the pKi at HIV-1 protease is 6.00 to 8.00. Besides, the IC90 in test [1] is under 10 µg/mL.
